Measurements from patent US20120184542A1, “PYRIDO PYRIMIDINES” (priority 2011, published 2012).
Structures can show the parent of a compound that is named as a salt. Where two headings read alike, the source gives them in different places.

Columns and labels:
Human DYRK1A = molecular target: T1, Human DYRK1A (Homo sapiens, UniProt Q13627); assay: DYRK1A Kinase TR-FRET (IMAP-Tb) Assay; format: biochemical; details: TR-FRET (IMAP-Tb); ATP 70 μM; 37° C. 60 minutes; read-out: Enzyme IC50 (μM) DYRK1A
T1 construct: purchased Invitrogen PV3997
Procedure, shortened: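 Recombinant human DYRK1A phosphorylated fluorescent substrate peptide (1.0 μM) with ATP in 10 mM HEPES pH 7.0, 50 mM NaCl, 5 mM MgCl2, 1 mM DTT, 1 mM NaVO4, 0.02% BSA for 60 min at 37 °C. Phosphopeptide detected by IMAP terbium TR-FRET; IC50 reported.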

Human DYRK1B = molecular target: T2, Human DYRK1B (Homo sapiens, UniProt Q9Y463); assay: DYRK1B Kinase TR-FRET (IMAP-Tb) Assay; format: biochemical; details: TR-FRET (IMAP-Tb), ATP 70 μM, 37° C. 60 minutes
T2 construct: purchased Invitrogen PR8350B (former PV4649)

[1] = test system: SW620 human colon cancer cells; assay: SW620 Cell Viability Assay; format: cell-based; details: Homo sapiens, SW-620, 96 h, read-out: Cellular EC50 (μM) SW620
Method: Some cells (S—) were allowed to attach for 24 hrs, serum starved for 48 hrs, and then followed with drug treatments Test Compound Solutions were Prepared in Regular Corresponding Media Supplemented with Serum 2. […] Viability Assay: This assay was performed as follows: • Transfer 50 μL of test compound solution per well from the test compound plate onto the cell plate prepared in Step #1. • Mix the plate with treated cells by pipetting up and down three times with 200 μL multi-channel pipette. • Incubate the cells in 5% CO2 incubator @ 37° C. for 4 days. • Run the CellTiter-Glo™ Luminescent Cell Viability Assay.

[2] = read-out: Enzyme IC50 (μM) DYRK1B
[3] = CellTiter-Glo, 4 days incubation

T2 sequence (Q9Y463 whole entry): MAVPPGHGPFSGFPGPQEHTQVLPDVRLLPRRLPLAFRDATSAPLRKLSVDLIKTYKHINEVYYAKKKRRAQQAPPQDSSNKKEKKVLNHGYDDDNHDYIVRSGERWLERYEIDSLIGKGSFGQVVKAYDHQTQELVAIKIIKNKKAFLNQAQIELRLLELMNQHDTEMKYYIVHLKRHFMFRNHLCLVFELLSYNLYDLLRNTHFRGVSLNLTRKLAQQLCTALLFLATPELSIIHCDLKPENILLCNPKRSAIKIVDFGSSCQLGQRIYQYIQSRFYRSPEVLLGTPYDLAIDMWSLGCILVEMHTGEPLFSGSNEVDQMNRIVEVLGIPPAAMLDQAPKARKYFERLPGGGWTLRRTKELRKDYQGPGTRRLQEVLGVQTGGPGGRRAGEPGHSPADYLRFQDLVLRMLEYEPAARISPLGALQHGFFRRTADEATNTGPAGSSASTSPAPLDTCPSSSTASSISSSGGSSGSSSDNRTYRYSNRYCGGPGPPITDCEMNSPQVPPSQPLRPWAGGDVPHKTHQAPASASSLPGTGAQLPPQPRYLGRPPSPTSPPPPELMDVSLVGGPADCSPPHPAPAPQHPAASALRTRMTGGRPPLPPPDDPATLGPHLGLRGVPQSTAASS

Row | Structure (SMILES) | IC50 (Human DYRK1A) [µM] | IC50 (Human DYRK1B; [2]) [µM] | EC50 [1, 3] [µM] | IC50 (Human DYRK1B; Enzyme IC50 (μM) DYRK1B) [µM] | EC50 [1] [µM]
1 | COC(=O)c1ccc(Cl)c(NC(=O)c2cc3cnc(N4CCN(C)CC4)nc3[nH]c2=O)c1 [Example 35, 4-Chloro-3-{[2-(4-methyl-piperazin-1-yl)-7-oxo-7,8-dihydro-pyrido[2,3-d]pyrimidine-6-carbonyl]amino}-benzoic acid methyl ester] | 0.0046 | 0.031 | 7.05 | – | –
2 | COC(=O)c1ccc(Cl)c(NC(=O)c2cc3cnc(NCC(O)CO)nc3[nH]c2=O)c1 (stereo not shown) [Example 38, 4-Chloro-3-{[2-(2,3-dihydroxy-propylamino)-7-oxo-7,8-dihydro-pyrido[2,3-d]pyrimidine-6-carbonyl]amino}-benzoic acid methyl ester] | 0.0385 | 0.08 | > 100 | – | –
3 | COC(=O)c1ccc(Cl)c(NC(=O)c2cc3cnc(N(CCO)CCO)nc3[nH]c2=O)c1 [Example 39, 3-({2-[Bis-(2-hydroxy-ethyl)-amino]-7-oxo-7,8-dihydro-pyrido[2,3-d]pyrimidine-6-carbonyl}-amino)-4-chloro-benzoic acid methyl ester] | 0.0128 | 0.0248 | 2.29 | – | –
4 | COc1ncc2cc(C(=O)Nc3cc(C(=O)NCc4cccc(Cl)c4)ccc3Cl)c(=O)[nH]c2n1 [Example 54, 2-Methoxy-7-oxo-7,8-dihydro-pyrido[2,3-d]pyrimidine-6-carboxylic acid [2-chloro-5-(3-chloro-benzylcarbamoyl)-phenyl]-amide] | 0.0215 | 0.0677 | 1.93 | – | –
5 | COc1ncc2cc(C(=O)Nc3cc(C(=O)NCCc4ccccc4)ccc3Cl)c(=O)[nH]c2n1 [Example 70, 2-Methoxy-7-oxo-7,8-dihydro-pyrido[2,3-d]pyrimidine-6-carboxylic acid (2-chloro-5-phenethylcarbamoyl-phenyl)-amide] | 0.352 | 0.204 | 2.3 | – | –
6 | CSc1ncc2cc(C(=O)Nc3cc(C(=O)NCc4cccc(Cl)c4)ccc3Cl)c(=O)[nH]c2n1 [Example 74, 2-Methylsulfanyl-7-oxo-7,8-dihydro-pyrido[2,3-d]pyrimidine-6-carboxylic acid [2-chloro-5-(3-chloro-benzylcarbamoyl)-phenyl]-amide] | 0.0256 | 0.0553 | 1.07 | – | –
7 | CN1CCN(c2ncc3cc(C(=O)Nc4cc(C(=O)NCc5cccc(Cl)c5)ccc4Cl)c(=O)[nH]c3n2)CC1 [Example 75, 2-(4-Methyl-piperazin-1-yl)-7-oxo-7,8-dihydro-pyrido[2,3-d]pyrimidine-6-carboxylic acid [2-chloro-5-(3-chloro-benzylcarbamoyl)-phenyl]-amide] | 0.0211 | 0.103 | 0.563 | – | –
8 | O=C(NCc1cccc(Cl)c1)c1ccc(Cl)c(NC(=O)c2cc3cnc(OCCCN4CCOCC4)nc3[nH]c2=O)c1 [Example 80, 2-(3-Morpholin-4-yl-propoxy)-7-oxo-7,8-dihydro-pyrido[2,3-d]pyrimidine-6-carboxylic acid [2-chloro-5-(3-chloro-benzylcarbamoyl)-phenyl]-amide] | 0.0046 | 0.231 | 0.325 | – | –
9 | COc1ncc2cc(C(=O)Nc3cc(C(=O)NC(CCN)c4cccc(Cl)c4)ccc3Cl)c(=O)[nH]c2n1 (stereo not shown) [Example 84, 2-Methoxy-7-oxo-7,8-dihydro-pyrido[2,3-d]pyrimidine-6-carboxylic acid {5-[3-amino-1-(3-chloro-phenyl)-propylcarbamoyl]-2-chloro-phenyl}-amide] | – | – | – | 0.0108 | 0.235
10 | COc1ncc2cc(C(=O)Nc3cc(C(N)=O)ccc3Cl)c(=O)[nH]c2n1 [Example 88, 2-Methoxy-7-oxo-7,8-dihydro-pyrido[2,3-d]pyrimidine-6-carboxylic acid (5-carbamoyl-2-chloro-phenyl)-amide] | – | – | – | 0.0749 | > 10
11 | COc1ncc2cc(C(=O)Nc3cc(C(=O)NC(CCN(C)C)c4cccc(Cl)c4)ccc3Cl)c(=O)[nH]c2n1 (stereo not shown) [Example 96, 2-Methoxy-7-oxo-7,8-dihydro-pyrido[2,3-d]pyrimidine-6-carboxylic acid {2-chloro-5-[1-(3-chloro-phenyl)-3-dimethylamino-propylcarbamoyl]-phenyl}-amide] | – | 0.233 | – | – | 1.97
12 | CN1CCN(CCCNc2ncc3cc(C(=O)Nc4cc(C(=O)NC(CCN)c5ccccc5)ccc4Cl)c(=O)[nH]c3n2)CC1 (stereo not shown) [Example 121, N-(5-(3-Amino-1-phenylpropylcarbamoyl)-2-chlorophenyl)-2-(3-(4-methylpiperazin-1-yl)propylamino)-7-oxo-7,8-dihydropyrido[2,3-d]pyrimidine-6-carboxamide hydrochloride] | – | – | – | 0.0137 | 0.157
13 | CN1CCN(CCNc2ncc3cc(C(=O)Nc4cc(C(=O)NC(CCN)c5ccccc5)ccc4Cl)c(=O)[nH]c3n2)CC1 (stereo not shown) [Example 132, N-(5-(3-Amino-1-phenylpropylcarbamoyl)-2-chlorophenyl)-2-(2-(4-methylpiperazin-1-yl)ethylamino)-7-oxo-7,8-dihydropyrido[2,3-d]pyrimidine-6-carboxamide hydrochloride] | – | – | – | 0.0306 | 0.228
14 | COc1ncc2cc(C(=O)Nc3cc(C(=O)N[C@H](CN)c4ccccc4)ccc3Cl)c(=O)[nH]c2n1 [Example 133, (S)—N-(5-(2-Amino-1-phenylethylcarbamoyl)-2-chlorophenyl)-2-methoxy-7-oxo-7,8-dihydropyrido[2,3-d]pyrimidine-6-carboxamide] | – | 0.0365 | – | – | 0.738
15 | NCCC(NC(=O)c1ccc(Cl)c(NC(=O)c2cc3cnc(N4CCC(N)CC4)nc3[nH]c2=O)c1)c1ccccc1 (stereo not shown) [Example 137, N-(5-(3-Amino-1-phenylpropylcarbamoyl)-2-chlorophenyl)-2-(4-aminopiperidin-1-yl)-7-oxo-7,8-dihydropyrido[2,3-d]pyrimidine-6-carboxamide hydrochloride] | – | – | – | 0.0258 | 0.659
16 | COc1ncc2cc(C(=O)Nc3cc(C(=O)NCCCN)ccc3Cl)c(=O)[nH]c2n1 [Example 164, N-(5-(3-Aminopropylcarbamoyl)-2-chlorophenyl)-2-methoxy-7-oxo-7,8-dihydropyrido[2,3-d]pyrimidine-6-carboxamide] | – | 0.774 | – | – | > 10
17 | COc1ncc2cc(C(=O)Nc3cc(C(=O)NC4(c5ccccc5)CCNCC4)ccc3Cl)c(=O)[nH]c2n1 [Example 166, N-(2-Chloro-5-(4-phenylpiperidin-4-ylcarbamoyl)phenyl)-2-methoxy-7-oxo-7,8-dihydropyrido[2,3-d]pyrimidine-6-carboxamide] | – | 1.89 | > 10 | – | –
18 | COc1ncc2cc(C(=O)Nc3cc(C(=O)N[C@H](CCN)c4ccccc4)ccc3Cl)c(=O)[nH]c2n1 [Example 171, (R)—N-(5-(3-Amino-1-phenylpropylcarbamoyl)-2-chlorophenyl)-2-methoxy-7-oxo-7,8-dihydropyrido[2,3-d]pyrimidine-6-carboxamide] | – | 0.017 | – | – | 0.446
19 | COc1ncc2cc(C(=O)Nc3cc(C(=O)N[C@@H](CCN)c4ccccc4)ccc3Cl)c(=O)[nH]c2n1 [Example 176, (S)—N-(5-(3-Amino-1-phenylpropylcarbamoyl)-2-chlorophenyl)-2-methoxy-7-oxo-7,8-dihydropyrido[2,3-d]pyrimidine-6-carboxamide] | – | 1.15 | – | – | > 1
